Where two headings read alike, the source gives them in different places.
Assays:
GPR68/OGR1 = molecular target: T1, GPR68/OGR1 (Homo sapiens, UniProt Q15743); test: CHEM1-OGR1 cells Fluo-8 calcium assay, acidified media pH 6.4; assay type: cell-based
T1 construct: host or cells: Chem-1 (CHEM1-OGR1) cells
Experimental: Briefly, the methods were: On the day before the assay 20,000 cells per well of CHEM1-OGR1 cells were plated in 10% DMEM containing 10% FBS and 1% Pen/Strep into a 96 well plate. After 24 hours media was removed and cells were stained with 80 μL Fluo-8 calcium indicator dye according to manufacturer's protocol. After staining cells were treated with 20 uL of 4× concentration of test compounds. Using kinetic imaging in the Lionheart HCS fluorescence intensity was continuously measure at 10 frames per second, for 5 seconds before 100 μL of acidified media was added to the well resulting in a pH of 6.4. A ratio of fluorescence intensities prior to addition and at peak were calculated and averaged. The resulting data were platted and using a 4 parameter logistic regression EC50 (the concentration causing 50% effective inhibition) for each test compound was determined.

Lpa1 = Lpa1 (Homo sapiens, UniProt Q92633); test: Lpa1 activity of OGM analogs (Table 5); assay type: cell-based
Sequence of Lpa1 (Q92633 whole entry, species assumed): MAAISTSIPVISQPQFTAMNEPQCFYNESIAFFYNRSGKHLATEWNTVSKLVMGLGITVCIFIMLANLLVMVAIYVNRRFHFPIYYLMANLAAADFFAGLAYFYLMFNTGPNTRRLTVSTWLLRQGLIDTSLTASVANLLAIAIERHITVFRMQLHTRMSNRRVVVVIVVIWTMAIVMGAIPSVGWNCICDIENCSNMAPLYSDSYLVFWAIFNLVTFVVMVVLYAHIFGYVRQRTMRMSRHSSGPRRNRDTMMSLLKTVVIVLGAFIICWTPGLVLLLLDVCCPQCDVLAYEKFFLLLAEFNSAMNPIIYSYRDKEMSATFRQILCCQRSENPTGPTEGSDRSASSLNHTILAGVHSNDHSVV
Experimental: GPCR profiling assays were performed by Millipore (St. Louis, MO) using in cells expressing Gα15, a promiscuous G protein that enhances GPCR coupling to downstream Ca2+ signaling pathways. KinomeScan was conducted by DiscoveRx (Fremont, CA). Since GPCRs represent >30% of targets for FDA-approved small molecules and are known to modulate cell migration, activity against 158 GPCRs was assessed based on their chemical structures. GPCRs (158) were tested for agonist and antagonist activity at 10 μM. […] Chemical segregation analysis of zebrafish phenotype was conducted to further identify the inhibitory activity responsible for the zebrafish phenotype. […] The identities of the R groups in Formula A are shown below in Table 5.

zebrafish embryo = test: Zebrafish embryo phenotype; assay type: in vivo
Experimental: A chemical screen for small molecules that perturb embryonic development (dorsoventral axis) in zebrafish was performed as previously described (see Chen et al., 2009; Hao et al., 2013; Williams et al., 2015; Yu et al., 2008)). Briefly, pairs of WT zebrafish were mated, and fertilized eggs were arrayed in 96-well microtiter plates (5 embryos/well) containing […] E3 water. At 4 hours post fertilization (pf), a small molecule library from Vanderbilt High Throughput Screening Facility was added to each well to a final concentration of 10 μM. Embryos were incubated at 28.5 C until 24 and 48 hours pf, when they were examined for gross morphologic changes indicative of reproducible embryonic defects (dorsalization of the embryonic axis). A total of 30,000 compounds were screened. To discover novel small molecule modulators of embryonic development an unbiased screen of ˜30,000 small molecules was conducted, in which the compounds were assayed for their ability to induce phenotypic changes in the morphology of zebrafish. Further information on these assays can be found in Hao et al., 2013 and Williams et al., 2015. […] This compound was identified based on the phenotype of aberrant pigmentation. Compare FIG. 2B and FIG. 2C, which show a dorsal view of a representative DMSO vehicle control-treated zebrafish embryo at 48 hours pf and a dorsal view of a representative OGM1 (10 uM)-treated zebrafish embryo at 48 hours pf. […] Since GPCRs represent >30% of targets for FDA-approved small molecules and are known to modulate cell migration, activity against 158 GPCRs was assessed based on their chemical structures. GPCRs (158) were tested for agonist and antagonist activity at 10 μM. […] Chemical segregation analysis of zebrafish phenotype was conducted to further identify the inhibitory activity responsible for the zebrafish phenotype. […] The identities of the R groups in Formula A are shown below in Table 5.

[1] = concentration causing 50% effective inhibition of calcium response to pH 6.4, read-out: EC50
[2] = concentrations up to 200× the IC50

T1 sequence (Q15743 whole entry): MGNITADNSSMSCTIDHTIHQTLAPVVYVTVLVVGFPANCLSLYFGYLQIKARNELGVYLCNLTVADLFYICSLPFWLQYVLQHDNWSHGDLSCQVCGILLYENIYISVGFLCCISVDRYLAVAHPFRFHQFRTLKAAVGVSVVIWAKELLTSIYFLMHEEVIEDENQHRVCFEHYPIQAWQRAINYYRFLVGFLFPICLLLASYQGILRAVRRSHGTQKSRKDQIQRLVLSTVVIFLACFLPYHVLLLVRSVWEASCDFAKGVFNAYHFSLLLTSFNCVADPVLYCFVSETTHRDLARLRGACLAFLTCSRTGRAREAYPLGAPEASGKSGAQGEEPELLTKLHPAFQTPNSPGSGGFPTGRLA

Row | Compound | EC50 (GPR68/OGR1; [1]) | also measured
1 | Cc1ccc(C2=NNC3(S2)C(=O)Nc2ccc(F)cc23)cc1 (stereo not shown) [OGM18] | 769 nM | 
2 | CCc1ccc2c(c1)C1(NN=C(c3ccccc3O)S1)C(=O)N2 (stereo not shown) [OGM4] |  | IC50 (Lpa1): 1400 nM; EC50 (GPR68/OGR1; Table 5, read-out: GPR68): 3400 nM
3 | COc1ccc2c(c1)C1(NN=C(c3ccc(Cl)cc3)S1)C(=O)N2 (stereo not shown) [OGM22] | 669 nM | 
4 | CCc1ccc2c(c1)C1(NN=C(c3ccc4cc(OC)ccc4c3)S1)C(=O)N2 (stereo not shown) [OGM27] | > 10000 nM | 
5 | O=C(O)c1ccc2c(c1)C1(NN=C(c3ccccc3)S1)C(=O)N2 (stereo not shown) [OGM42] | 1880 nM | 
6 | O=C1Nc2ccc(F)cc2C12NN=C(c1ccccc1)S2 (stereo not shown) [OGM9] | 2840 nM | 
7 | Cc1ccc(C2=NNC3(S2)C(=O)Nc2ccc(Cl)cc23)cc1 (stereo not shown) [OGM16] | 785 nM | 
8 | O=C1Nc2ccc(Cl)cc2C12NN=C(c1ccccc1)S2 (stereo not shown) [OGM7] | 1170 nM | 
9 | COc1ccc2c(c1)C1(NN=C(c3ccc4ncccc4c3)S1)C(=O)N2 (stereo not shown) [OGM43] | > 10000 nM | 
10 | COC(=O)c1ccc2c(c1)C1(NN=C(c3cccc4cccnc34)S1)C(=O)N2 (stereo not shown) [OGM44] | 4050 nM | 
11 | O=C1Nc2ccc(Cl)cc2C12NN=C(c1ccc(F)cc1)S2 (stereo not shown) [OGM21] | 722 nM | 
12 | NS(=O)(=O)c1ccc2c(c1)C1(NN=C(c3ccc4ncccc4c3)S1)C(=O)N2 (stereo not shown) [OGM55] | 3930 nM | 
13 | CC(C)=CCN1C(=O)C2(NN=C(c3ccc(Cl)cc3)S2)c2cc(Cl)ccc21 (stereo not shown) [OGM31] | 9080 nM | 
14 | COC(=O)c1ccc2c(c1)C1(NN=C(c3cccnc3)S1)C(=O)N2 (stereo not shown) [OGM47] | > 10000 nM | 
15 | O=C1Nc2ccc(F)cc2C12NN=C(c1cccc3cccnc13)S2 (stereo not shown) [OGM46] | 1470 nM | 
16 | COC(=O)c1ccc2c(c1)C1(NN=C(c3ccccc3)S1)C(=O)N2 (stereo not shown) [OGM41] | 2260 nM | 
17 | Cc1noc(-c2ccc(CSCCC(=O)O)cc2)c1NC(=O)OC(C)c1ccccc1Cl (stereo not shown) [LPAi] |  | IC50 (Lpa1): 250 nM; induction of zebrafish phenotype (zebrafish embryo; concentrations up to 50 μM, ˜200× its IC50): failed to induce the phenotype; induction of zebrafish phenotype (zebrafish embryo; [2]): failed to induce a noticeable phenotype
18 | CCc1ccc2c(c1)C1(NN=C(c3ccc4ncccc4c3)S1)C(=O)N2 (stereo not shown) [OGM40] | 1190 nM | 
19 | CCc1ccc2c(c1)C1(NN=C(c3cccc4cccnc34)S1)C(=O)N2 (stereo not shown) [OGM58] | 5480 nM | 
20 | COc1ccc(C2=NNC3(S2)C(=O)N(CC=C(C)C)c2ccccc23)cc1 (stereo not shown) [OGM30] | > 10000 nM | 
21 | COc1ccc2c(c1)C1(NN=C(c3cccc4cccnc34)S1)C(=O)N2 (stereo not shown) [OGM38] | 2620 nM | 
22 | COc1cc(Br)c(S(=O)(=O)Nc2ccc(Cl)c(O[C@@H]3CCN(C)C3)c2)cc1OC [UT2i] |  | induction of zebrafish phenotype (zebrafish embryo; [2]): failed to induce a noticeable phenotype
23 | Cc1ccc(C2=NNC3(S2)C(=O)Nc2ccccc23)cc1 (stereo not shown) [OGM15] | 1060 nM | 
24 | O=C1Nc2ccc(F)cc2C12NN=C(c1cccnc1)S2 (stereo not shown) [OGM56] | 3580 nM | 
25 | Cc1ccc2c(c1)C1(NN=C(c3ccccc3)S1)C(=O)N2 (stereo not shown) [OGM3] |  | IC50 (Lpa1): 6400 nM; EC50 (GPR68/OGR1; Table 5, read-out: GPR68): 760 nM
26 | CC(C)=CCN1C(=O)C2(NN=C(c3cccc4ccccc34)S2)c2cc(Cl)ccc21 (stereo not shown) [OGM32] | > 10000 nM | 
27 | CC(C)=CCN1C(=O)C2(NN=C(c3cccc4ccccc34)S2)c2ccccc21 (stereo not shown) [OGM33] | > 10000 nM | 
28 | CN1C(=O)C2(NN=C(c3ccccc3)S2)c2cc(Br)ccc21 (stereo not shown) [OGM36] | 5600 nM | 
29 | COc1ccc2c(c1)NC(=O)C21NN=C(c2ccnc(OC)c2)S1 (stereo not shown) [OGM51] | 3570 nM | 
30 | O=C1Nc2ccccc2C12NN=C(c1ccc(Cl)cc1)S2 (stereo not shown) [OGM13] | < 826 nM | 

Reference: patent US20240327364A1, “THERAPEUTIC TARGETING OF GPR68 TO INDUCE FERROPTOSIS” (University Of Maryland, Baltimore, priority 2023, published 2024)
